Measurements reported in US20130197040A1, “POLYMORPHS OF DALFAMPRIDINE, PREPARATIONS AND USES THEREOF” (priority 2010, published 2013).

Columns and labels:
[1] = Stability on exposure to the air at room temperature for 12 months, purity by HPLC; format: physicochemical; settings: after exposure to the air at room temperature for 12 months
Method: (§1) The polymorphs of 4-aminopyridine or the polymorphs of the solvates thereof according to the present invention were exposed to the air at room temperature for 12 months, and then purities thereof were measured by using high performance liquid chromatography.
as §1, with “The above-mentioned eight” for “The”, “or” for “or the polymorphs”, “chromatography. The obtained purity results thereof were shown as follows:” for “chromatography.”
The purities were measured by using high performance liquid chromatography under the following conditions:
Chromatographic Column: Agilent extend-C18 (250*4.6 mm, 5 μ)
Mobile Phase: 0.01 mol/L of monopotassium phosphate solution containing 0.01 mol/L of sodium octanesulfonate (adjusted to pH 2.6 with phosphoric acid)-methanol (75:25);
Column Temperature: 40° C.;
Detection Wavelength: 264 nm;

[2] = tested on: multiple sclerosis patients; settings: injected in 11 patients with eyesight and motor function impaired because of multiple sclerosis, 1983; cited from earlier work
[3] = tested on: multiple sclerosis patients; settings: clinical trials (Phase III); cited from earlier work

| Structure (SMILES) | Purity (%) [1] [%] | further results |
| --- | --- | --- |
| Nc1ccncc1 [Polymorph V, 4-aminopyridine] | 100 |  |
| Nc1ccncc1 [Polymorph III, 4-aminopyridine] | 100 |  |
| Nc1ccncc1 [Polymorph I, 4-aminopyridine] | 99.66 |  |
| Nc1ccncc1 [Polymorph VI, 4-aminopyridine] | 99.98 |  |
| Nc1ccncc1 [Polymorph VII, 4-aminopyridine] | 100 |  |
| Nc1ccncc1 [Polymorph VIII, 4-aminopyridine] | 100 |  |
| Nc1ccncc1 [Polymorph IV, 4-aminopyridine] | 100 |  |
| Nc1ccncc1 [Polymorph II, 4-aminopyridine] | 100 |  |
| Nc1ccncc1 [dalfampridine, 4-aminopyridine] |  | eyesight [2]: improved; walking speed [2]: improved; walking speed versus placebo [3]: faster than that in patients who took a placebo |
